Experimental data from patent US20210195924A1, “PHOTODYNAMIC INACTIVATION METHOD OF SALMONELLA” (SHANGHAI OCEAN UNIVERSITY, priority 2019, published 2021).

What was measured:
[1] = tested on: Salmonella on contaminated egg shells; assay: Salmonella inactivation experiment for fresh egg shells; assay type: cell-based
Protocol: Sterile egg shells were mixed with a Salmonella bacterial solution to be contaminated and divided into three groups as follows: 1, a single photosensitizer group with riboflavin concentration of 150 μmol/L, was subjected to the dark incubation for 40 min without the illumination of a blue light source; 2, a photodynamic experiment group with riboflavin concentration of 150 μmol/L, was subjected to the dark incubation for 40 min under the illumination of the blue light source for 40 min; and 3, a blank reference group with a saline solution having a volume equal to that of the riboflavin solution. Each group was provided with two parallel groups.
Bacteria culture: under a sterile condition, each group of egg shells was diluted with the saline solution for two times and then homogenized by a sterile homogenizing device and diluted. 100 μL diluent with appropriate dilution degrees was inoculated into the TSA solid culture medium and cultured for 24 to 48 h in the thermostatic incubator at 37° C. The number of bacterial colonies in each group was counted.

[2] = tested on: Salmonella typhimurium CICC 21484 and Salmonella enteritidis CMCC 50041; assay: Riboflavin-mediated photodynamic inactivation of Salmonella in bacterial solution (455-460 nm LED blue light, plate count); assay type: cell-based
[3] = tested on: vesicular stomatitis virus; settings: ultraviolet radiation; riboflavin 300 μmol/L; under 10 minutes; cited from earlier work
[4] = tested on: Escherichia coli; settings: Gram-negative bacteria Escherichia coli; cited from earlier work
[5] = tested on: Staphylococcus aureus; settings: Gram-positive bacteria Staphylococcus aureus; cited from earlier work

Molecule | sterilization rate ([1]; egg shells, photodynamic inactivation with riboflavin as photosensitizer, multiple experiments) [%] | number of bacterial colonies in the egg shells after the PDI treatment ([1]; riboflavin 150 μmol/L, dark incubation 40 min, blue light 40 min, blank reference group 7.4×10^5 CFU/g) | number of bacterial colonies in the egg shells of the single photosensitizer group ([1]; riboflavin 150 μmol/L, dark incubation 40 min, no blue light, blank reference group 7.4×10^5 CFU/g) | amount of Salmonella reduced ([2]; riboflavin 100 μmol/L, incubation time 40 min, illumination time 30 min, initial inoculation about 4.5×10^6 CFU/mL) [Log CFU/mL] | lethality (fatality rate) of Salmonella ([2]; riboflavin 150 μmol/L, dark incubation 40 min, illumination 30 min) [%] | fatality rate of Salmonella ([2]; riboflavin 150 μmol/L, dark incubation 40 min, illumination time 40 min) [%] | lethality (fatality rate) of Salmonella ([2]; riboflavin 150 μmol/L, dark incubation 40 min, no blue light (illumination 0 min)) | amount of Salmonella reduced ([2]; riboflavin 150 μmol/L, incubation 40 min, illumination time 20 min, initial inoculation about 6.75 Log CFU/mL) [Log CFU/mL] | amount of Salmonella reduced ([2]; riboflavin 150 μmol/L, incubation 40 min, illumination time 30 min, initial inoculation about 6.75 Log CFU/mL (Embodiment 3)) [Log CFU/mL] | amount of Salmonella reduced ([2]; riboflavin 150 μmol/L, incubation 40 min, illumination time 40 min, initial inoculation about 6.75 Log CFU/mL) [Log CFU/mL] | amount of Salmonella reduced ([2]; riboflavin 150 μmol/L, incubation 40 min, illumination time 50 min, initial inoculation about 6.75 Log CFU/mL) [Log CFU/mL] | amount of Salmonella reduced ([2]; riboflavin 150 μmol/L, incubation time 40 min, illumination time 30 min, initial inoculation about 4.5×10^6 CFU/mL (Embodiment 1)) [Log CFU/mL] | lethality of Salmonella ([2]; riboflavin 200 μmol/L, dark incubation 40 min, illumination 30 min) [%] | amount of Salmonella reduced ([2]; riboflavin 200 μmol/L, incubation time 40 min, illumination time 30 min, initial inoculation about 4.5×10^6 CFU/mL) [Log CFU/mL] | lethality of Salmonella ([2]; riboflavin concentration increased beyond 200 μmol/L, dark incubation 40 min, illumination 30 min) | virus killing [3] | influence on growth [4] | photodynamic inactivation effect [5]
Cc1cc2nc3c(=O)[nH]c(=O)nc-3n(C[C@H](O)[C@H](O)[C@H](O)CO)c2cc1C [riboflavin] | 99.88 | 8.4×10^2 CFU/g | 7.0×10^5 CFU/g | 1.12 | 100 | 100 | extremely low | 2.23 | 6.21 | 6.75 | 6.75 | 6.14 | 100 | 6.21 | apparently decreased | killed |  | 
chlorophyllin ester |  |  |  |  |  |  |  |  |  |  |  |  |  |  |  |  | no influence on the growth | significant photodynamic inactivation effect
